Data taken from patent US20250034520A1, “INCREASING DEVELOPMENTAL POTENTIAL OF HUMAN PREIMPLANTATION EMBRYOS BY REDUCING GENETIC INSTABILITY, ANEUPLOIDIES AND CHROMOSOMAL MOSAICISM” (THE TRUSTEES OF COLUMBIA UNIVERSITY IN THE CITY OF NEW YORK, priority 2022, published 2025).

Columns and labels:
Assay type in all cases: cell-based
[1] = test system: mouse parthenogenetic zygotes; experiment: anaphase figures at the first mitosis, mouse parthenogenetic zygotes
Method: (§1) Embryos, mouse and human, were cultured in Global Total (Life-Global) for the duration of the experiments and with added compounds as outlined below. Incubation in RNA polymerase inhibitors triptolide (1 mM) or alpha amanitin (20 mg/ml) was performed from the 2PN stage (day1) to day3 of human development. Incubation in aphidicolin was performed at 2 mM. […] Mirin was used at a concentration of 50 mM. Olaparib was used to inhibit PARP at a concentration of 10 mM. All experiments were conducted during incubation at 37° C. with 5% CO2 and 19-20% O2. Chemical stock solutions were prepared in DMSO at concentrations at least 1000× higher than the final concentration.
(§2) Mouse oocytes were activated at 1-6 hours post retrieval using 2 mM ionomycin (Sigma Aldrich) in Global Total medium for 5 minutes at 37° C. followed by culture in 10 mM puromycin and 5 mg/ml cytochalasin B for 3 hours, then cytochalasinB only for 2 hours and 10 minutes to prevent second polar body extrusion.
(§3) Following the experimental exposures, mouse and human embryos were fixed in 2% paraformaldehyde (PFA) and 0.25% Triton X-100 in PBS for 10 minutes at room temperature, serially washed in phosphate-buffered solution (PBS) at room temperature, then stored in PBS at 4° C. until staining and imaging. Embryos were placed in 10-20 ml droplets of primary antibody solution within plastic tissue culture dishes covered with mineral oil for 1 hour at room temperature, serially washed (×2) in PBS containing 0.01% Triton X-100 to prevent embryos sticking to oil, then transferred to 10-20 ml secondary antibody solution and Hoechst (dilution 1:500) for 30 minutes. Embryos were then serially washed (×2) and placed in 5 ml droplets of PBS with 0.5% serum albumin in uncoated glass bottom dishes (Mattek) covered with embryo culture oil for imaging. The following primary antibodies were used across experiments as described above: Oct-4, γH2AX, RPA32, RPA32 S4/S8, RPA32 S33, 53BP1, RAD51, Centromere, and phospho-CHK1. Phospho-specific antibodies were quality controlled through ATR dependence of foci formation in mouse zygotes, and for γH2AX also in human zygotes. […] The appropriate secondary antibodies conjugated with Alexa Fluor 488, Alexa Fluor 555, CF 568, or Alexa Fluor 647 were diluted at 1:500-1:1000. Ethynyl deoxyuridine (EdU) labeling of zygotes and embryos was performed using the labeling kit (Thermo Fisher Scientific) as described by the manufacturer. 10 mM EdU was added to culture medium for 1 h at the indicated time points, and cells were harvested and fixed thereafter. 5-ethynyl uridine (EU) labeling was performed by incubating day3 cleavage stage embryos for 4 hours in Global total containing 0.2 mM EU.

[2] = test system: mouse 2-cell embryos; experiment: single-cell sequencing chromosome content analysis, mouse 2-cell embryos
Method: as §1
Single cells from blastomeres were collected on the heated stage (Tokai Hit) of an Olympus IX71 inverted microscope equipped with Narishige micromanipulators and a zona pellucida laser (Hamilton-Thorne). Single nuclei were isolated from blastomeres by lysis and dissection of different nuclei using two […] diameter Piezo micropipettes and Holding pipette (Origio). Single embryo cells or nuclei were placed manually in single wells of a 96-well plate containing 9 ml of lysis buffer, prepared as a master mix of 798 ml H2O, 6 ml of 10 mg/mL Proteinase K solution (Sigma-Aldrich), and 96 ml 10× Single Cell Lysis and Fragmentation buffer (Sigma-Aldrich). Single cells/single nuclei were lysed by heating 96-well plates containing single cells/single nuclei at 50° C. for 1 hour, followed by incubation at 99° C. for four minutes using a PCR thermocycler. Single-cell/single-nuclei whole genome amplification (WGA) using degenerate oligo-nucleotide priming PCR (DOP-PCR) was performed using the SEQPLEX Enhanced DNA Amplification Kit (SEQXE, Sigma) according to the manufacturer's instructions. In addition, a modified version of the DOP-PCR protocol that allows inline indexing of WGA DNA was also applied. WGA DNA was subsequently processed for Illumina library sequencing preparation using standard TruSeq indexing methods via the NEBNext Ultra II DNA Library Prep Kit for Illumina (New England Biolabs). NEBNext Multiplex Oligos for Illumina (96 index primers) were used for four amplification cycles. Library DNA was quantified using Qubit dsDNA HS Assay Kit (Invitrogen, Carlsbad, CA, USA) and library size distribution was confirmed using a 2100 Bioanalyzer DNA 1000 Kit (Agilent, Santa Clara, CA, USA). A unimodal curve centered around 300-500 bp was scored as a successful library preparation. Subsequently, 30 mL of each pooled library was sent for sequencing at a concentration of 20 ng/ml. Mutiplex sequencing was performed using Illumina HiSeq 2500 single end indexed run (SR100) while targeting a coverage of approximately 1 million reads per cell/nuclei, sufficient for quantitative genome-wide copy number analysis.
Analysis of DNA sequencing data was performed as previously described (Baslan et al., 2015) with minor modifications as outlined below. Briefly, multiplex sequencing data were demultiplexed according to unique barcodes with reads assigned to their respective single-cell or single-nuclei. Unique reads were aligned to the reference human and mouse genome builds, hg19 and mm9, respectively. Each genome was partitioned into 5000 bins using a previously described algorithm (Varbin) that corrects for genome sequence mappability (Baslan et al., 2012; Navin et al., 2011). Uniquely mapped reads were sorted, indexed and subsequently counted within the partitioned genomic bins. For single-cell copy number inference, read count data were normalized genome-wide followed by CBS segmentation (Olshen et al., 2004) and transformed into integer copy number states using a least-squares fit approach (Baslan et al., 2015).

[3] = test system: mouse embryos; experiment: mouse preimplantation development and embryo quality
Method: as §1, §2, §3
Embryos were imaged with confocal microscopy using a Zeiss LSM (LSM 710) at a magnification of 63× and the Zeiss Zen software. Images were obtained using 488-, 543- and 633-nm lasers and bright-field microscopy. The number of confocal sections was adjusted to capture the entire nucleus or the entire embryo according to the experimental design as described above. Cell numbers and staining foci numbers were counted manually. Nuclei were identified by the presence of Hoechst33342. Foci were identified if at least 3× greater intensity than nuclear average, spherical in appearance, and overlapping with Hoechst33342 staining. Inner cell masses were identified by the presence of Oct4 within a blastocyst embryo. Active DNA replication was identified by the presence of EdU. DNA damage was identified by the detection of γH2AX and RPA foci within the nucleus. Mechanisms of DNA repair were identified through the detection of RPA S4/S8, RPA S33, Rad51 and 53BP1 foci within the nucleus.

[4] = combined aphidicolin exposure and G2 checkpoint inhibition

## C[C@@]1(CO)[C@H](O)CC[C@@]2(C)[C@H]1CC[C@H]1C[C@@H]3C[C@@]12CC[C@]3(O)CO [aphidicolin]
[1]; aphidicolin in G2 phase
  embryos with abnormal anaphase, range per experiment: 7%-30%
[1]; aphidicolin in G2 phase, controls 191/191 normal
  embryos with abnormal anaphase: 17.4%
[1]; applied only after pronuclear envelope breakdown
  effect on chromosome segregation at anaphase: inconsequential
[1]; both ATR kinase inhibitor and aphidicolin in G2 phase
  frequency of abnormal anaphase figures: 63%
[2]; aphidicolin-treated
  chromosomal abnormalities per cell: 0.62 per cell
[2]; aphidicolin-treated, controls 98% normal
  blastomeres showing aneuploidy: 33%
[2]; both aphidicolin and G2 checkpoint inhibitor
  aneuploidies per cell: 2.1 per cell
[2]; combination of aphidicolin and G2 checkpoint inhibition
  blastomeres showing aneuploidy: 64.5%
[2]; [4]
  chromosomes with aneuploidies per cell: 2 chromosomes per cell
  euploid mouse 2-cell embryos: 35.5%
[3]; 48 h post activation, aphidicolin in G2
  micronucleation: increased
[3]; aphidicolin in G2 phase
  cleaved embryos developed to the blastocyst stage, range: 25%-87%
[3]; aphidicolin in G2 phase, controls 92%
  cleaved embryos developed to the blastocyst stage: 72%
[3]; day 5, aphidicolin in G2
  ICM cells marked by Pou5f1: fewer
  total cell number of blastocysts: reduced
